Publication PMC11979685, “Synthesis of Derivatives of the Antibiotic Albicidin: The N‐Terminal Fragment as Key to Control Potency and Resistance Mediated by the Binding Protein AlbA” (Chemistry (Weinheim an Der Bergstrasse, Germany), 2025)
In brackets after ≈: the same amount, converted by molar mass. Read-outs that look alike come from different tables or passages of the source.

Experiments:
[1] = Reverse-phase HPLC retention time as estimate of lipophilicity; assay type: physicochemical; details: indicator of lipophilicity
Excerpt: As mentioned before, albicidin 1 is a rather hydrophobic compound and improving its aqueous solubility is desirable. The lipophilicity of drug molecules is commonly characterized by the octanol/water partition coefficient (logP). An alternative approach relies on the correlation between lipophilicity and the retention time (Rt) on a reverse‐phase HPLC column.[31] This approach works well if structurally related compounds are compared as is the case for this SAR study. Rt was thus used to estimate the hydrophilicity of albicidin 1 and its derivatives 2–24 (Table 1).[32]

E. coli DSM1116 = test: MIC determination (broth microdilution); assay type: cell-based
Experimental: (§1) After completing the syntheses, the antibacterial activity of A‐variations 4–24 was assessed by determination of MIC values against a basic set of gram‐negative and gram‐positive bacteria (Table 1). The monocyclic derivatives 4–8 featuring a cyano‐, trifluoromethyl‐, methoxy‐ and fluoro‐ substituent in para‐position were very active against the gram–negative E. coli and S. typhimurium strains with MIC values in the same range as 3rd Gen albicidin 3 or ciprofloxacin which is the gold standard for gyrase inhibitors. […] These findings are in agreement with previous studies showing good activities for cyano, trifluoromethyl, methoxy and fluoro substituents in the para‐position of different aromatic rings in the building block A.[12, 13] The activity of the monocyclic derivatives 4–8 against the gram‐positive strains B. subtilis and M. luteus were similar but slightly less pronounced compared to the lead structure 3.
(§2) 1.1 Determination of Minimal Inhibitory Concentrations (MIC)
(§3) Minimal inhibitory concentration (MIC) against selected bacterial strains values were determined according to the ninth edition of the Approved Standard M07-A9.[1] 20 μL of cryo stocks of bacterial strains were suspended in 20 mL LB medium (Lysogeny broth: 10 g/L peptone, 5 g/L yeast extract, 5 g/L NaCl). Following incubation overnight at 37°C, 200 rpm, the test inoculum was adjusted by 0.5 McFarland Standard in cation adjusted Mueller-Hinton broth (BBLTM Mueller-Hinton Broth II, Becton, Dickinson and Company, New Jersey, USA) to approximately 1x10^6 CFU mL-1. 95 μL of the bacterial inoculum were applied per well of a 96-well plate. Albicidin and albicidin derivatives 3−24 were dissolved in DMSO (100%) to an initial concentration of 2560 μg/mL and serially diluted in DMSO (100%). Initial solution and serial dilutions of Ciprofloxacin were prepared in 0.1 N HCL, respectively. 5 μL of each antibiotic dilution were added to the microdilution tray to reach albicidin concentrations of 128 μg/mL to 0.016 μg/mL per well. One row of each well plate served as a growth control without antibiotic substances and another row of the microdilution tray served as sterility control (only MHB II - media). The antimicrobial effect of the solvent (DMSO) was tested by adding 5 μL DMSO to several wells. Purity check and cell titer control were performed according to International S tandard M07-A9 on Mueller-Hinton II Agar (Mueller Hinton II Broth, 15 g/L agar-agar). Both microdilution trays and agar plates were incubated at 30−37°C for 16 h and subsequently analyzed for growth inhibition by naked eye. The following primary panel of microorganisms were purchased from German Collection of Microorganisms and Cell Cultures (DSMZ):
(§4) Escherichia coli DSM 1116
(§5) Micrococcus luteus DSM 1790
(§6) Mycobacterium phlei DSM 750
(§7) Salmonella typhimurium TA100 was kindly provided by Prof. Dr. Vera Meyer (Technische Universität Berlin). […]
(§8) was purchased as part of the single gene knockout library of E. coli K12 BW25113 (Keio collection) from Horizon Discovery group plc (Cambridge, UK).

[2] = tested on: Salmonella typhimurium TA100; test: MIC determination (broth microdilution); assay type: cell-based; details: Salmonella enterica, read-out: MIC S. typh.
Experimental: as §1, §2, §3, §4, §5, §6, §7, §8

[3] = tested on: Micrococcus luteus DSM 1790; test: MIC determination (broth microdilution); assay type: cell-based; details: DSM1790, read-out: MIC M. luteus
Experimental: as §1, §2, §3, §4, §5, §6, §7, §8

E. coli BW25113 = test: MIC determination (broth microdilution); assay type: cell-based
Experimental: as §1, §2, §3, §4, §5, §6, §7, §8

Bacillus subtilis DSM 10 = test: MIC determination (broth microdilution); assay type: cell-based; details: DSM10, read-out: MIC B. sub.
Experimental: as §1, §2, §3, §4, §5, §6, §7, §8

[4] = tested on: Mycobacterium phlei DSM 750; test: MIC determination (broth microdilution); assay type: cell-based
Experimental: as §1, §2, §3, §4, §5, §6, §7, §8

E. coli = test: MIC against E. coli in presence of 50 % human serum; assay type: cell-based; details: Escherichia coli, read-out: MICEc 50%HS
[5] = Escherichia coli, DSM1116; read-out: MIC E. coli DSM1116
[6] = Escherichia coli, BW25113; read-out: MIC E. coli BW25113
[7] = Mycolicibacterium phlei, DSM750; read-out: MIC M. phlei
[8] = E. coli in presence of 50 % human serum
[9] = Escherichia coli, DSM1116, read-out: MIC E. coli DSM1116
[10] = Escherichia coli, BW25113, read-out: MIC E. coli BW25113

| SMILES | Rt (retention time) [1] | MIC (E. coli DSM1116; [5]) | MIC [2] | MIC [3] | MIC (E. coli BW25113; [6]) | MIC (Bacillus subtilis DSM 10) | MIC [4, 7] | MIC (E. coli; [8]) | MIC (E. coli DSM1116; [9]) | MIC (E. coli BW25113; [10]) | MIC ([4]; Mycolicibacterium phlei, DSM750, read-out: MIC M. phlei) | MIC (E. coli) |
| --- | --- | --- | --- | --- | --- | --- | --- | --- | --- | --- | --- | --- |
| COc1c(NC(=O)c2ccc(NC(=O)c3ccc(NC(=O)[C@H](Cc4c[nH]nn4)NC(=O)c4ccc(NC(=O)c5ccc(C#N)cc5)cc4)cn3)c(OC)c2O)ccc(C(=O)O)c1O [compound 4] | 8.20 min | 0.031 µg/mL (≈ 0.0363 µM) | ≤ 0.016 µg/mL | 0.125 µg/mL (≈ 0.146 µM) | ≤ 0.016 µg/mL | 0.125 µg/mL (≈ 0.146 µM) | 4 µg/mL (≈ 4.68 µM) | 1 µg/mL |  |  |  |  |
| COc1c(NC(=O)c2ccc(NC(=O)c3ccc(NC(=O)[C@H](Cc4c[nH]nn4)NC(=O)c4ccc(NC(=O)[C@@H](C)Oc5ccc(O)cc5)cc4)cn3)c(OC)c2O)ccc(C(=O)O)c1O [compound 9] | 7.78 min | 0.063 µg/mL (≈ 0.0708 µM) | 0.063 µg/mL (≈ 0.0708 µM) | 2 µg/mL (≈ 2.25 µM) | 0.063 µg/mL (≈ 0.0708 µM) | 1 µg/mL (≈ 1.12 µM) |  | ≥ 8 µg/mL |  |  |  |  |
| COc1c(NC(=O)c2ccc(NC(=O)c3ccc(NC(=O)[C@H](Cc4c[nH]nn4)NC(=O)c4ccc(NC(=O)c5ccc6ccccc6n5)cc4)cn3)c(OC)c2O)ccc(C(=O)O)c1O [compound 11] | 9.49 min | ≤ 0.016 µg/mL | ≤ 0.016 µg/mL | ≤ 0.016 µg/mL | ≤ 0.016 µg/mL | ≤ 0.016 µg/mL | 0.5 µg/mL (≈ 0.568 µM) | 2 µg/mL |  |  |  |  |
| COc1c(NC(=O)c2ccc(NC(=O)c3ccc(NC(=O)[C@H](Cc4c[nH]nn4)NC(=O)c4ccc(NC(=O)c5cc6ccccc6cn5)cc4)cn3)c(OC)c2O)ccc(C(=O)O)c1O [compound 12] | 8.74 min |  | ≤ 0.016 µg/mL | 0.063 µg/mL (≈ 0.0715 µM) |  | 0.063 µg/mL (≈ 0.0715 µM) |  |  | ≤ 0.016 µg/mL | ≤ 0.016 µg/mL | 1 µg/mL (≈ 1.14 µM) | 1 µg/mL |
| COc1c(NC(=O)c2ccc(NC(=O)c3ccc(NC(=O)[C@H](Cc4c[nH]nn4)NC(=O)c4ccc(NC(=O)c5cnc6ccccc6c5)cc4)cn3)c(OC)c2O)ccc(C(=O)O)c1O [compound 13] | 8.07 min | 0.031 µg/mL (≈ 0.0352 µM) |  | 0.125 µg/mL (≈ 0.142 µM) | ≤ 0.016 µg/mL | 0.125 µg/mL (≈ 0.142 µM) | 1 µg/mL (≈ 1.14 µM) |  |  |  |  |  |
| COc1c(NC(=O)c2ccc(NC(=O)c3ccc(NC(=O)[C@H](Cc4c[nH]nn4)NC(=O)c4ccc(NC(=O)c5ccc6ncccc6c5)cc4)cn3)c(OC)c2O)ccc(C(=O)O)c1O [compound 14] | 7.67 min | 0.016 µg/mL (≈ 0.0182 µM) | ≤ 0.016 µg/mL | 0.125 µg/mL (≈ 0.142 µM) | ≤ 0.016 µg/mL | 0.25 µg/mL (≈ 0.284 µM) | 4 µg/mL (≈ 4.54 µM) | 4 µg/mL |  |  |  |  |
| COc1c(NC(=O)c2ccc(NC(=O)c3ccc(NC(=O)[C@H](Cc4c[nH]nn4)NC(=O)c4ccc(NC(=O)c5ccc6nc(C)ccc6c5)cc4)cn3)c(OC)c2O)ccc(C(=O)O)c1O [compound 16] | 6.94 min |  |  |  |  |  |  |  |  |  |  |  |
| COc1c(NC(=O)c2ccc(NC(=O)c3ccc(NC(=O)[C@H](Cc4c[nH]nn4)NC(=O)c4ccc(NC(=O)c5c[nH]c6ccccc6c5=O)cc4)cn3)c(OC)c2O)ccc(C(=O)O)c1O [compound 17] | 7.98 min | 0.031 µg/mL (≈ 0.0346 µM) |  | ≤ 0.016 µg/mL | 0.063 µg/mL (≈ 0.0702 µM) | ≤ 0.016 µg/mL | 8 µg/mL (≈ 8.92 µM) |  |  |  |  |  |
| CCn1cc(C(=O)Nc2ccc(C(=O)N[C@@H](Cc3c[nH]nn3)C(=O)Nc3ccc(C(=O)Nc4ccc(C(=O)Nc5ccc(C(=O)O)c(O)c5OC)c(O)c4OC)nc3)cc2)c(=O)c2ccc(C)nc21 [compound 18] | 9.24 min | 0.031 µg/mL (≈ 0.033 µM) | ≤ 0.016 µg/mL | 0.031 µg/mL (≈ 0.033 µM) | 0.063 µg/mL (≈ 0.067 µM) | 0.063 µg/mL (≈ 0.067 µM) | ≥ 8 µg/mL | 8 µg/mL |  |  |  |  |
| CCn1cc(C(=O)Nc2ccc(C(=O)N[C@@H](Cc3c[nH]nn3)C(=O)Nc3ccc(C(=O)Nc4ccc(C(=O)Nc5ccc(C(=O)O)c(O)c5OC)c(O)c4OC)nc3)cc2)c(=O)c2cc3c(cc21)OCO3 [compound 19] | 8.45 min | 0.016 µg/mL (≈ 0.0165 µM) |  | 0.016 µg/mL (≈ 0.0165 µM) | ≤ 0.016 µg/mL | 0.031 µg/mL (≈ 0.032 µM) | 0.25 µg/mL (≈ 0.258 µM) |  |  |  |  |  |
| COc1c(NC(=O)c2ccc(NC(=O)c3ccc(NC(=O)[C@H](Cc4c[nH]nn4)NC(=O)c4ccc(NC(=O)c5cc(=O)c6cc(F)ccc6o5)cc4)cn3)c(OC)c2O)ccc(C(=O)O)c1O [compound 20] | 8.60 min | ≤ 0.016 µg/mL | ≤ 0.016 µg/mL | 0.063 µg/mL (≈ 0.0688 µM) | ≤ 0.016 µg/mL | 0.125 µg/mL (≈ 0.136 µM) | 2 µg/mL (≈ 2.18 µM) | 8 µg/mL |  |  |  |  |
| COc1c(NC(=O)c2ccc(NC(=O)c3ccc(NC(=O)[C@H](Cc4c[nH]nn4)NC(=O)c4ccc(NC(=O)c5cc6cc(O)ccc6[nH]5)cc4)cn3)c(OC)c2O)ccc(C(=O)O)c1O [compound 21] | 7.50 min | 0.063 µg/mL (≈ 0.0712 µM) | 0.125 µg/mL (≈ 0.141 µM) | 1 µg/mL (≈ 1.13 µM) |  | 1 µg/mL (≈ 1.13 µM) | 4 µg/mL (≈ 4.52 µM) | ≥ 8 µg/mL |  | 0.125 µg/mL (≈ 0.141 µM) |  |  |
| COc1c(NC(=O)c2ccc(NC(=O)c3ccc(NC(=O)[C@H](Cc4c[nH]nn4)NC(=O)c4ccc(NC(=O)c5ccc6ncsc6c5)cc4)cn3)c(OC)c2O)ccc(C(=O)O)c1O [compound 22] | 7.65 min | ≤ 0.016 µg/mL | ≤ 0.016 µg/mL | 0.125 µg/mL (≈ 0.141 µM) | ≤ 0.016 µg/mL | 0.125 µg/mL (≈ 0.141 µM) | 2 µg/mL (≈ 2.26 µM) | 0.5 µg/mL |  |  |  |  |
| COc1c(NC(=O)c2ccc(NC(=O)c3ccc(NC(=O)[C@H](Cc4c[nH]nn4)NC(=O)c4ccc(NC(=O)c5ccc6nc[nH]c6c5)cc4)cn3)c(OC)c2O)ccc(C(=O)O)c1O [compound 23] | 6.69 min |  | 0.125 µg/mL (≈ 0.144 µM) | 2 µg/mL (≈ 2.3 µM) |  | 2 µg/mL (≈ 2.3 µM) | 8 µg/mL (≈ 9.2 µM) | ≥ 8 µg/mL | 0.125 µg/mL (≈ 0.144 µM) | 0.125 µg/mL (≈ 0.144 µM) |  |  |
| COc1c(NC(=O)c2ccc(NC(=O)c3ccc(NC(=O)[C@H](Cc4c[nH]nn4)NC(=O)c4ccc(NC(=O)c5ccc6nn[nH]c6c5)cc4)cn3)c(OC)c2O)ccc(C(=O)O)c1O [compound 24] | 7.16 min | 0.125 µg/mL (≈ 0.144 µM) | 0.031 µg/mL (≈ 0.0356 µM) | 0.5 µg/mL (≈ 0.574 µM) | 0.125 µg/mL (≈ 0.144 µM) | 0.5 µg/mL (≈ 0.574 µM) | 8 µg/mL (≈ 9.19 µM) | 2 µg/mL |  |  |  |  |
